# Assay results taken from patent US12617779B2, “Self degradation-type CDK9 inhibitor prodrug and liposome encapsulating same” (Sumitomo Pharma Co., Ltd., priority 2021, dated 2026).
# Experiment: Evaluation of conversion rate to active form in buffer solution (Experimental Example 1)
# Assay type: physicochemical
# Settings: for Alvocidib amount produced, after subtracting the 28.2% Alvocidib of the sample (Table 36-2) / Production rate of Alvocidib / Residual rate: 37° C.; for Production rate of Alvocidib / Residual rate: 25 umol/L in buffer solution
# Outline: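 Conversion to Alvocidib and loss of parent were followed by HPLC over 3 h (samples at 0, 0.5, 1, 2, 3 h). Incubations used 25 umol/L compound at 37 °C across pH 5.0–7.4, in 50 mM citrate below pH 6.0 and 50 mM phosphate from pH 6.0 upward.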
structure (smiles),measurement,setting,value
"CN1CC[C@H](c2c(OC(=O)N(CCCC(F)(F)F)CC3CCCCN3)cc(O)c3c(=O)cc(-c4ccccc4Cl)oc23)[C@H](O)C1 (stereo partly drawn) [Example 14, 2-(2-chlorophenyl)-5-hydroxy-8-[(3S,4R)-3-hydroxy-1-methylpiperidin-4-yl]-4-oxo-4H-1-benzopyran-7-yl [(piperidin-2-yl)methyl](4,4,4-trifluorobutyl)carbamate]","Alvocidib amount produced, after subtracting the 28.2% Alvocidib of the sample (Table 36-2)","pH5.0, 0 hr",1.0%
same,Production rate of Alvocidib,"pH5.0, 0 hr",29.2%
same,Residual rate,"pH5.0, 0 hr",56.6%
same,Stability in buffer solution at pH 5,"pH 5, 37° C., up to 2 or 3 hours",stable
same,"Alvocidib amount produced, after subtracting the 28.2% Alvocidib of the sample (Table 36-2)","pH5.0, 0.5 hr",1.7%
same,Production rate of Alvocidib,"pH5.0, 0.5 hr",29.9%
same,Residual rate,"pH5.0, 0.5 hr",54.6%
same,"Alvocidib amount produced, after subtracting the 28.2% Alvocidib of the sample (Table 36-2)","pH5.0, 1 hr",3.5%
same,Production rate of Alvocidib,"pH5.0, 1 hr",31.7%
same,Residual rate,"pH5.0, 1 hr",53.0%
same,"Alvocidib amount produced, after subtracting the 28.2% Alvocidib of the sample (Table 36-2)","pH5.0, 2 hr",4.9%
same,Production rate of Alvocidib,"pH5.0, 2 hr",33.1%
same,Residual rate,"pH5.0, 2 hr",51.0%
same,"Alvocidib amount produced, after subtracting the 28.2% Alvocidib of the sample (Table 36-2)","pH5.0, 3 hr",5.2%
same,Production rate of Alvocidib,"pH5.0, 3 hr",33.4%
same,Residual rate,"pH5.0, 3 hr",52.7%
same,"Alvocidib amount produced, after subtracting the 28.2% Alvocidib of the sample (Table 36-2)","pH5.5, 0 hr",0.8%
same,Production rate of Alvocidib,"pH5.5, 0 hr",29.0%
same,Residual rate,"pH5.5, 0 hr",57.5%
same,"Alvocidib amount produced, after subtracting the 28.2% Alvocidib of the sample (Table 36-2)","pH5.5, 0.5 hr",2.7%
same,Production rate of Alvocidib,"pH5.5, 0.5 hr",30.9%
same,Residual rate,"pH5.5, 0.5 hr",55.8%
same,"Alvocidib amount produced, after subtracting the 28.2% Alvocidib of the sample (Table 36-2)","pH5.5, 1 hr",4.5%
same,Production rate of Alvocidib,"pH5.5, 1 hr",32.7%
same,Residual rate,"pH5.5, 1 hr",54.3%
same,"Alvocidib amount produced, after subtracting the 28.2% Alvocidib of the sample (Table 36-2)","pH5.5, 2 hr",7.2%
same,Production rate of Alvocidib,"pH5.5, 2 hr",35.4%
same,Residual rate,"pH5.5, 2 hr",48.6%
same,"Alvocidib amount produced, after subtracting the 28.2% Alvocidib of the sample (Table 36-2)","pH5.5, 3 hr",9.7%
same,Production rate of Alvocidib,"pH5.5, 3 hr",37.9%
same,Residual rate,"pH5.5, 3 hr",47.7%
same,"Alvocidib amount produced, after subtracting the 28.2% Alvocidib of the sample (Table 36-2)","pH6.0, 0 hr",0.9%
same,Production rate of Alvocidib,"pH6.0, 0 hr",29.1%
same,Residual rate,"pH6.0, 0 hr",55.8%
same,"Alvocidib amount produced, after subtracting the 28.2% Alvocidib of the sample (Table 36-2)","pH6.0, 0.5 hr",6.2%
same,Production rate of Alvocidib,"pH6.0, 0.5 hr",34.4%
same,Residual rate,"pH6.0, 0.5 hr",49.7%
same,"Alvocidib amount produced, after subtracting the 28.2% Alvocidib of the sample (Table 36-2)","pH6.0, 1 hr",10.9%
same,Production rate of Alvocidib,"pH6.0, 1 hr",39.1%
same,Residual rate,"pH6.0, 1 hr",44.8%
same,"Alvocidib amount produced, after subtracting the 28.2% Alvocidib of the sample (Table 36-2)","pH6.0, 2 hr",22.0%
same,Production rate of Alvocidib,"pH6.0, 2 hr",50.2%
same,Residual rate,"pH6.0, 2 hr",31.8%
same,"Alvocidib amount produced, after subtracting the 28.2% Alvocidib of the sample (Table 36-2)","pH6.0, 3 hr",27.7%
same,Production rate of Alvocidib,"pH6.0, 3 hr",55.9%
same,Residual rate,"pH6.0, 3 hr",24.5%
same,"Alvocidib amount produced, after subtracting the 28.2% Alvocidib of the sample (Table 36-2)","pH6.5, 0 hr",3.4%
same,Production rate of Alvocidib,"pH6.5, 0 hr",31.6%
same,Residual rate,"pH6.5, 0 hr",52.2%
same,"Alvocidib amount produced, after subtracting the 28.2% Alvocidib of the sample (Table 36-2)","pH6.5, 0.5 hr",17.6%
same,Production rate of Alvocidib,"pH6.5, 0.5 hr",45.8%
same,Residual rate,"pH6.5, 0.5 hr",35.2%
same,"Alvocidib amount produced, after subtracting the 28.2% Alvocidib of the sample (Table 36-2)","pH6.5, 1 hr",28.9%
same,Production rate of Alvocidib,"pH6.5, 1 hr",57.1%
same,Residual rate,"pH6.5, 1 hr",22.9%
same,"Alvocidib amount produced, after subtracting the 28.2% Alvocidib of the sample (Table 36-2)","pH6.5, 2 hr",34.8%
same,Production rate of Alvocidib,"pH6.5, 2 hr",63.0%
same,Residual rate,"pH6.5, 2 hr",14.0%
same,"Alvocidib amount produced, after subtracting the 28.2% Alvocidib of the sample (Table 36-2)","pH6.5, 3 hr",44.4%
same,Production rate of Alvocidib,"pH6.5, 3 hr",72.6%
same,Residual rate,"pH6.5, 3 hr",5.1%
same,"Alvocidib amount produced, after subtracting the 28.2% Alvocidib of the sample (Table 36-2)","pH7.0, 0 hr",2.5%
same,Production rate of Alvocidib,"pH7.0, 0 hr",30.7%
same,Residual rate,"pH7.0, 0 hr",53.4%
same,"Alvocidib amount produced, after subtracting the 28.2% Alvocidib of the sample (Table 36-2)","pH7.0, 0.5 hr",33.8%
same,Production rate of Alvocidib,"pH7.0, 0.5 hr",62.0%
same,Residual rate,"pH7.0, 0.5 hr",16.3%
same,"Alvocidib amount produced, after subtracting the 28.2% Alvocidib of the sample (Table 36-2)","pH7.0, 1 hr",39.8%
same,Production rate of Alvocidib,"pH7.0, 1 hr",68.0%
same,Residual rate,"pH7.0, 1 hr",8.4%
same,"Alvocidib amount produced, after subtracting the 28.2% Alvocidib of the sample (Table 36-2)","pH7.0, 2 hr",47.3%
same,Production rate of Alvocidib,"pH7.0, 2 hr",75.5%
same,Residual rate,"pH7.0, 2 hr",1.1%
same,"Alvocidib amount produced, after subtracting the 28.2% Alvocidib of the sample (Table 36-2)","pH7.0, 3 hr",47.0%
same,Production rate of Alvocidib,"pH7.0, 3 hr",75.2%
same,Residual rate,"pH7.0, 3 hr",0.4%
same,"Alvocidib amount produced, after subtracting the 28.2% Alvocidib of the sample (Table 36-2)","pH7.4, 0 hr",7.7%
same,Production rate of Alvocidib,"pH7.4, 0 hr",35.9%
same,Residual rate,"pH7.4, 0 hr",45.8%
same,Conversion to Alvocidib at pH 7.4,"pH 7.4, 37° C., up to 3 hours",rapidly converted to Alvocidib
same,"Alvocidib amount produced, after subtracting the 28.2% Alvocidib of the sample (Table 36-2)","pH7.4, 0.5 hr",43.4%
same,Production rate of Alvocidib,"pH7.4, 0.5 hr",71.6%
same,Residual rate,"pH7.4, 0.5 hr",4.6%
same,"Alvocidib amount produced, after subtracting the 28.2% Alvocidib of the sample (Table 36-2)","pH7.4, 1 hr",48.4%
same,Production rate of Alvocidib,"pH7.4, 1 hr",76.6%
same,Residual rate,"pH7.4, 1 hr",0.7%
same,"Alvocidib amount produced, after subtracting the 28.2% Alvocidib of the sample (Table 36-2)","pH7.4, 2 hr",47.4%
same,Production rate of Alvocidib,"pH7.4, 2 hr",75.6%
same,Residual rate,"pH7.4, 2 hr",0.2%
same,"Alvocidib amount produced, after subtracting the 28.2% Alvocidib of the sample (Table 36-2)","pH7.4, 3 hr",47.5%
same,Production rate of Alvocidib,"pH7.4, 3 hr",75.7%
same,Residual rate,"pH7.4, 3 hr",0.3%
